14 compounds from patent publication US8791267B2, “Biaryl PDE4 inhibitors for treating inflammatory, cardiovascular and CNS disorders” (Decode Genetics EHF, priority 2007, dated 2014) can be followed below.

Structures can show the parent of a compound that is named as a salt. Where two headings read alike, the source gives them in different places.

Experiment [1] deals with PDE4B (Homo sapiens, UniProt Q07343). The experiment is described as follows: In-vitro assay for PDE4 enzymes, real-time enzyme-coupled spectrophotometric assay, PDE4B Activity (Table 10). It is filed as biochemical.
The target in experiment [2] is PDE4 (Homo sapiens, UniProt Q08499). The experiment is described as follows: In-vitro assay for PDE4 enzymes, real-time enzyme-coupled spectrophotometric assay (Table 9). Type of experiment: biochemical.
Where [3] appears, read: human PDE4B (hPDE4B), enzyme-coupled spectrophotometric assay, read-out: PDE4B Activity, hPDE4B.
Setting [4] is: human PDE4D, activity class, Table 9, read-out: hPDE4D.

Sequence of PDE4B (Q07343 whole entry): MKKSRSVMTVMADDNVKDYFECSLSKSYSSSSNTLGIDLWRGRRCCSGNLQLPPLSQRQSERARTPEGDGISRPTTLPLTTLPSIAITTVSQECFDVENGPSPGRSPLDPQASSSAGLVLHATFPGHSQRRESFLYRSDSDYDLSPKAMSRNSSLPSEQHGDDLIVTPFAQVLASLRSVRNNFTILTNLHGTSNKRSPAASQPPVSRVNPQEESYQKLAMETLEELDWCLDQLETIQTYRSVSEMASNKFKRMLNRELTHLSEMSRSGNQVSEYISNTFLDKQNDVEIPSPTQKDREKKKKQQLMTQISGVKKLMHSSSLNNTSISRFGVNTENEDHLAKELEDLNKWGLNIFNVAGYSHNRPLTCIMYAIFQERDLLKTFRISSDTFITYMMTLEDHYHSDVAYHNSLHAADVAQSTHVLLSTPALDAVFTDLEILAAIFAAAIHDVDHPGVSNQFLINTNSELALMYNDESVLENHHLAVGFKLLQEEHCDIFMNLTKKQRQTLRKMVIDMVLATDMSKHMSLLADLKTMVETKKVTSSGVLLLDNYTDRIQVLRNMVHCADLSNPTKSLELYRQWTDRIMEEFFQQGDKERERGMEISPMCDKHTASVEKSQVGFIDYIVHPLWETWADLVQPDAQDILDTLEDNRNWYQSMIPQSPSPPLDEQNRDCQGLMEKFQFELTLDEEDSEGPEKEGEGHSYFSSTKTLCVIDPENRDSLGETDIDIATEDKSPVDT
Sequence of PDE4 (Q08499 whole entry): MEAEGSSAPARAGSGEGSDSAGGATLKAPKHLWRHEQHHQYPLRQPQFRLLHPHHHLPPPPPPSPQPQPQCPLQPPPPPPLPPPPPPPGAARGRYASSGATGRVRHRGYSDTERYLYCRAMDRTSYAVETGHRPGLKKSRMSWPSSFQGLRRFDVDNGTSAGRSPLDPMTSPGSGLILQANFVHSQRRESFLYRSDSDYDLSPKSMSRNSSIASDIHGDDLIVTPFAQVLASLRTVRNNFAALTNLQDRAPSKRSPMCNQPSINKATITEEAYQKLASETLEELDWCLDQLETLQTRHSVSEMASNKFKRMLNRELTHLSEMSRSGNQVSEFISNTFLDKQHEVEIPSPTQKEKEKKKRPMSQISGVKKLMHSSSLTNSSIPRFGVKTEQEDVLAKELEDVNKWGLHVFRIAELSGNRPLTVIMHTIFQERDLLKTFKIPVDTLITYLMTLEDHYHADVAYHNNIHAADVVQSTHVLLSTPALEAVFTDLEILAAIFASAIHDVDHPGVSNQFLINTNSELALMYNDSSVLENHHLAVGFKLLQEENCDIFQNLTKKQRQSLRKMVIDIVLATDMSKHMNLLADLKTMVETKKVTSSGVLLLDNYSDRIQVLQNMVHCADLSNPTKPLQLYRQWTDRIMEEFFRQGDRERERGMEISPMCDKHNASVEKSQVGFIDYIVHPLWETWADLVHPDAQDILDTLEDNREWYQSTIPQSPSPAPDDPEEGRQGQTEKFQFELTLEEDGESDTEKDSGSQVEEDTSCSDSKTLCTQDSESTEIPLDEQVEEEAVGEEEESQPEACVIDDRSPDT

Consider `COc1ccc(Cc2ccc(N3CCNC3=O)nc2)c(F)c1-c1cccc(C(C)=O)c1` [P-361, 1-[5-(3′-Acetyl-2-fluoro-6-methoxy-biphenyl-3-ylmethyl)-pyridin-2-yl]-imidazolidin-2-one], for which the IC50 in experiment [1] (setting [3]) and in experiment [2] (setting [4]) was under 5 µM each time.

For the compound `COc1ccc(Cc2cnc(NC(N)=O)nc2)c(F)c1-c1cccc(C(C)=O)c1` [P-362, [5-(3′-Acetyl-2-fluoro-6-methoxy-biphenyl-3-ylmethyl)-pyrimidin-2-yl]-urea], the IC50 in experiment [1] (setting [3]) and in experiment [2] (setting [4]) was under 5 µM in each case.

With `COc1ccc(Cc2cnc(NC(=O)NCCCl)nc2)c(F)c1-c1cccc(C(C)=O)c1` [P-366, 1-[5-(3′-Acetyl-2-fluoro-6-methoxy-biphenyl-3-ylmethyl)-pyrimidin-2-yl]-3-(2-chloro-ethyl)-urea], the IC50 in experiment [1] and in experiment [2] was under 5 µM throughout.

As for `CCOC(=O)NCc1ccc(Cc2ccc(OC)c(-c3cccc(Cl)c3)c2F)cn1` [P-367, [5-(3′-Chloro-2-fluoro-6-methoxy-biphenyl-3-ylmethyl)-pyridin-2-ylmethyl]-carbamic acid ethyl ester], the IC50 in experiment [1] (setting [3]) and in experiment [2] (setting [4]) was under 5 µM each time.

Take `COc1ccc(Cc2ccc(CNC(N)=O)nc2)c(F)c1-c1cccc(Cl)c1` [P-368, [5-(3′-Chloro-2-fluoro-6-methoxy-biphenyl-3-ylmethyl)-pyridin-2-ylmethyl]-urea]: the IC50 in experiment [1] (setting [3]) and in experiment [2] (setting [4]) was under 5 µM in each case.

For `COc1ccc(Cc2cnc(N)s2)c(F)c1-c1cccc(Cl)c1` [P-369, 5-(3′-Chloro-2-fluoro-6-methoxy-biphenyl-3-ylmethyl)-thiazol-2-ylamine], the IC50 in experiment [1] (setting [3]) and in experiment [2] (setting [4]) was under 5 µM in each case.

For `COc1ccc(CN2CCN(C(N)=O)CC2)c(F)c1-c1cccc(Cl)c1` [P-370], the IC50 is 5 to 20 µM in experiment [1] (setting [3]) and under 5 µM in experiment [2] (setting [4]).

As to `COc1ccc(Cc2ccc(CNC(=O)N(C)C)nc2)c(F)c1-c1cccc(Cl)c1` [P-371, 3-[5-(3′-Chloro-2-fluoro-6-methoxy-biphenyl-3-ylmethyl)-pyridin-2-ylmethyl]-1,1-dimethyl-urea hydrochloride], the IC50 in experiment [1] (setting [3]) and in experiment [2] (setting [4]) was under 5 µM in each case.

With `CCNC(=O)NCc1ccc(Cc2ccc(OC)c(-c3cccc(Cl)c3)c2F)cn1` [P-372, 1-[5-(3′-Chloro-2-fluoro-6-methoxy-biphenyl-3-ylmethyl)-pyridin-2-ylmethyl]-3-ethyl-urea], the IC50 in experiment [1] (setting [3]) and in experiment [2] (setting [4]) was under 5 µM each time.

With `COc1ccc(Cc2ccc(CNC(=O)N3CCN(C)CC3)nc2)c(F)c1-c1cccc(Cl)c1` [P-373, 4-Methyl-piperazine-1-carboxylic acid [5-(3′-chloro-2-fluoro-6-methoxy-biphenyl-3-ylmethyl)-pyridin-2-ylmethyl]-amide], the IC50 in experiment [1] (setting [3]) was 5 to 20 µM; in experiment [2] (setting [4]) it was under 5 µM.

As to `COc1ccc(Cc2ccc(CN3CCNC3=O)nc2)c(F)c1-c1cccc(Cl)c1` [P-374, 1-[5-(3′-Chloro-2-fluoro-6-methoxy-biphenyl-3-ylmethyl)-pyridin-2-ylmethyl]-imidazolidin-2-one], the IC50 in experiment [1] (setting [3]) and in experiment [2] (setting [4]) was under 5 µM throughout.

As to `COc1ccc(Cc2ccc(CN3CCN(C)C3=O)nc2)c(F)c1-c1cccc(Cl)c1` [P-375, 1-[5-(3′-Chloro-2-fluoro-6-methoxy-biphenyl-3-ylmethyl)-pyridin-2-ylmethyl]-3-methyl-imidazolidin-2-one], the IC50 in experiment [1] (setting [3]) and in experiment [2] (setting [4]) was under 5 µM each time.

In the case of `COc1ccc(Cc2ccc(NC(N)=O)cc2)nc1-c1cccc(Cl)c1` [P-376, {4-[6-(3-chloro-phenyl)-5-methoxy-pyridin-2-ylmethyl]-phenyl}-urea], the IC50 in experiment [1] (setting [3]) and in experiment [2] (setting [4]) was under 5 µM each time.

`COc1ccc(Cc2ccc(NC(N)=O)cc2)cc1-c1cccc(Cl)c1` [P-378, [4-(3′-chloro-6-methoxy-biphenyl-3-ylmethyl)-phenyl]-urea]: the IC50 in experiment [1] (setting [3]) and in experiment [2] (setting [4]) was under 5 µM each time.
